Experimental data from publication PMC8175350, “Drug repurposing screens identify chemical entities for the development of COVID-19 interventions” (Nature Communications, 2021).
pEC50: −log10 of the molar value. Where a name gives a salt, the structure may show the parent alone. Read-outs that look alike come from different tables or passages of the source.

Experiments:
SARS-CoV-2 [1] = assay: microbe, parasite or virus in culture; format: cell-based
SARS-CoV-2 [2] = assay: microbe, parasite or virus in culture; format: cell-based; conditions: for Emax: Severe acute respiratory syndrome coronavirus 2, Calu-3, 48 h, read-out: Calu-3 CoV-2 Sinf Average
Calu-3 cells [3] = assay: cells; conditions: Homo sapiens; for Emax: Calu-3, 48 h, read-out: Calu-3 cell count Sinf Average; for pEC50: Calu-3, read-out: Calu-3 cell count EC50 GeoMean
[4] = HepG2 72 h CellTiter-Glo cytotoxicity; conditions: human, HepG2 cells
HepG2 [5] = assay: HepG2 72 h CellTiter-Glo cytotoxicity; conditions: 72 h
[6] = HEK293T 72 h CellTiter-Glo cytotoxicity; conditions: human, HEK293T cells
HEK293T [7] = assay: HEK293T 72 h CellTiter-Glo cytotoxicity; conditions: 72 h
[8] = Uninfected Calu-3 48 h Cell-Titer Glo cytotoxicity counter screen; conditions: human, uninfected Calu-3 cells
Calu-3 cells [9] = assay: as above
[10] = Uninfected HeLa-ACE2 24 h live/dead cytotoxicity counter screen; format: cell-based, human; conditions: human, uninfected HeLa-ACE2 cells
HeLa-ACE2 cells [11] = assay: as above; format: cell-based, human
SARS-CoV-2 [12] = assay: microbe, parasite or virus in culture; format: cell-based; conditions: for Emax: Severe acute respiratory syndrome coronavirus 2, HeLa-ACE2, 10 h, read-out: HeLa-ACE2 TOA CoV-2 Sinf Average; for pEC50: read-out: HeLa-ACE2 TOA CoV-2 EC50 GeoMean
HeLa-ACE2 cells [13] = assay: Total cell count in the HeLa-ACE2 TOA assay; format: cell-based; conditions: Homo sapiens; for Emax: HeLa-ACE2, 10 h, curve plateau at infinite concentration, read-out: HeLa-ACE2 TOA cell count Sinf Average; for pEC50: HeLa-ACE2, read-out: HeLa-ACE2 TOA cell count EC50 GeoMean
Description: Supplement 41467_2021_23328_MOESM3_ESM.xlsx, sheet "Table S1" | column: HeLa-ACE2 TOA cell count

Calu-3 cells [14] = conditions: for Calu-3 uninfected cytotoxicity Sinf Average: human
HepG2 [15] = conditions: human
HEK293T [16] = conditions: human
HeLa-ACE2 cells [17] = assay: cells; conditions: Homo sapiens; for Emax: HeLa-ACE2, 24 h, read-out: HeLa-ACE2 cell count Sinf Average; for pEC50: HeLa-ACE2, read-out: HeLa-ACE2 cell count EC50 GeoMean
in vitro = conditions: human
SARS-CoV-2 [18] = format: cell-based; conditions: combination with remdesivir, synergy score δ
[19] = Calu-3 uninfected cytotoxicity CC50 GeoMean
[20] = Severe acute respiratory syndrome coronavirus 2, HeLa-ACE2, 24 h, curve plateau at infinite concentration; read-out: HeLa-ACE2 CoV-2 Sinf Average
[21] = Severe acute respiratory syndrome coronavirus 2, HeLa-ACE2, detail column; read-out: HeLa-ACE2 CoV-2 EC50 GeoMean
[22] = read-out: HeLa-ACE2 uninfected cytotoxicity CC50 GeoMean
[23] = curve plateau at infinite concentration
[24] = Severe acute respiratory syndrome coronavirus 2, Calu-3, detail column, read-out: Calu-3 CoV-2 EC50 GeoMean
[25] = Severe acute respiratory syndrome coronavirus 2, HeLa-ACE2

Cc1ccc(NC(=O)c2ccc(CN3CCN(C)CC3)cc2)cc1Nc1nccc(-c2cccnc2)n1 [Imatinib mesylate]
Emax (SARS-CoV-2 [1]; Severe acute respiratory syndrome coronavirus 2, HeLa-ACE2, 24 h; read-out: HeLa-ACE2 CoV-2 Sinf Average): 100% | Emax (SARS-CoV-2 [2]): 100% | Emax (Calu-3 cells [3]): 100% | CC50 at 72 h [4]: 12.9 µM | HepG2 72-hour cytotoxicity Sinf Average (HepG2 [5]): -100% | CC50 at 72 h [6]: 15.2 µM | HEK293T 72-hour cytotoxicty Sinf Average (HEK293T [7]): -100% | CC50 at 48 h [8, 19]: > 29.9 µM | Calu-3 uninfected cytotoxicity Sinf Average (Calu-3 cells [9]; human, uninfected Calu-3 cells, 48 h): -100%

COc1ccc2c(c1)[C@]1(C[C@H]1c1ccc3c(/C=C/c4ccc(CN5C[C@@H](C)O[C@@H](C)C5)cc4)n[nH]c3c1)C(=O)N2 [CFI-400945]
Emax (SARS-CoV-2 [1]; [20]): 100% | pEC50 (SARS-CoV-2 [1]; [21]): < 5.15 | CC50 at 24 h [10, 22]: 7.18 µM | HeLa-ACE2 uninfected cytotoxicity Sinf Average (HeLa-ACE2 cells [11]; [23]): -100% | Emax (SARS-CoV-2 [2]; [23]): 100% | pEC50 (SARS-CoV-2 [2]; [24]): 5.47 | Emax (SARS-CoV-2 [12]; [23]): 100% | pEC50 (SARS-CoV-2 [12]; [25]): 5.34 | Emax (HeLa-ACE2 cells [13]): 100% | pEC50 (HeLa-ACE2 cells [13]): < 5.02 | uninfected Calu-3 CC50 (Calu-3 cells [14]): > 19.756 ×÷ 1.816 (n=3) μM | Calu-3 uninfected cytotoxicity Sinf Average (Calu-3 cells [14]; 48 h): -98% | HepG2 72-hour cytotoxicity Sinf Average (HepG2 [15]; 72 h): -100% | HEK293T 72-hour cytotoxicty Sinf Average (HEK293T [16]; 72 h): -95% | Emax (HeLa-ACE2 cells [17]): 53% | pEC50 (HeLa-ACE2 cells [17]): < 6.93 | Emax (Calu-3 cells [3]): 100% | pEC50 (Calu-3 cells [3]): 5.32 | CC50 at 48 h (in vitro; [19]): > 19.8 µM

C=CC(=O)Nc1cc(Nc2nccc(-c3cn(C)c4ccccc34)n2)c(OC)cc1N(C)CCN(C)C [AZD-9291/Osimertinib]
Emax (SARS-CoV-2 [1]; [20]): 100% | pEC50 (SARS-CoV-2 [1]; [21]): 6.02 | CC50 at 24 h [10, 22]: > 18.1 µM | HeLa-ACE2 uninfected cytotoxicity Sinf Average (HeLa-ACE2 cells [11]; [23]): -100% | Emax (SARS-CoV-2 [2]; [23]): 100% | pEC50 (SARS-CoV-2 [2]; [24]): < 5.80 | Emax (SARS-CoV-2 [12]; [23]): 100% | pEC50 (SARS-CoV-2 [12]; [25]): < 5.11 | HeLa-ACE2 synergy score with remdesivi [δ] (SARS-CoV-2 [18]): -0.722 | Emax (HeLa-ACE2 cells [13]): -100% | pEC50 (HeLa-ACE2 cells [13]): < 5.02 | Emax (HeLa-ACE2 cells [17]): 98% | pEC50 (HeLa-ACE2 cells [17]): < 5.37 | Emax (Calu-3 cells [3]): -100% | pEC50 (Calu-3 cells [3]): < 5.00 | CC50 (in vitro; [19]): 1.69 µM | HepG2 72-hour cytotoxicity Sinf Average (HepG2 [5]): -107% | HEK293T 72-hour cytotoxicty Sinf Average (HEK293T [7]): -103% | Calu-3 uninfected cytotoxicity Sinf Average (Calu-3 cells [9]; [23]): -89%

CCCCc1oc2ccccc2c1C(=O)c1cc(I)c(OCCN(CC)CC)c(I)c1 [Amiodarone]
Emax (SARS-CoV-2 [1]; Severe acute respiratory syndrome coronavirus 2, HeLa-ACE2, 24 h, read-out: HeLa-ACE2 CoV-2 Sinf Average): 96% | HeLa-ACE2 uninfected cytotoxicity Sinf Average (HeLa-ACE2 cells [11]; human, uninfected HeLa-ACE2 cells, 24 h): -101% | Emax (SARS-CoV-2 [2]): 100% | Emax (SARS-CoV-2 [12]): 100% | Emax (HeLa-ACE2 cells [17]): 100% | Emax (Calu-3 cells [3]): 100% | HepG2 72-hour cytotoxicity Sinf Average (HepG2 [5]): -100% | CC50 at 72 h [6]: 10.9 µM | HEK293T 72-hour cytotoxicty Sinf Average (HEK293T [7]): -100%

CN1CC2c3ccccc3Oc3ccc(Cl)cc3C2C1 (stereo not drawn) [Asenapine maleate]
Emax (SARS-CoV-2 [1]; [20]): 97% | CC50 at 24 h ([10]; detail block, read-out: HeLa-ACE2 uninfected cytotoxicity CC50 GeoMean): > 35.6 µM | HeLa-ACE2 uninfected cytotoxicity Sinf Average (HeLa-ACE2 cells [11]; [23]): -100% | Emax (SARS-CoV-2 [2]; [23]): 100% | Emax (SARS-CoV-2 [12]; [23]): 100% | CC50 at 72 h [4]: 19.9 µM | HepG2 72-hour cytotoxicity Sinf Average (HepG2 [5]): -100% | CC50 at 72 h [6]: 23.3 µM | HEK293T 72-hour cytotoxicty Sinf Average (HEK293T [7]): -100% | CC50 at 48 h [8]: > 29.9 µM | Calu-3 uninfected cytotoxicity Sinf Average (Calu-3 cells [9]; [23]): -100%

Nc1ncnc2c1nc(Cl)n2[C@@H]1O[C@H](CO)[C@@H](O)[C@H]1O [8-Chloroadenosine]
Emax (SARS-CoV-2 [1]; [20]): 98% | pEC50 (SARS-CoV-2 [1]; Severe acute respiratory syndrome coronavirus 2, HeLa-ACE2, reconfirmed hits; read-out: HeLa-ACE2 SARS-CoV-2 EC50): 6.03 | CC50 at 24 h ([10]; reconfirmed hits, read-out: HeLa-ACE2 Uninf. cells CC50): > 11.9 µM | CC50 at 24 h [10, 22]: > 11.9 µM | HeLa-ACE2 uninfected cytotoxicity Sinf Average (HeLa-ACE2 cells [11]; [23]): -87% | Emax (SARS-CoV-2 [2]; [23]): 96% | pEC50 (SARS-CoV-2 [2]; [24]): 5.31 | pEC50 (SARS-CoV-2 [2]; Severe acute respiratory syndrome coronavirus 2, Calu-3, reconfirmed hits, read-out: Calu-3 SARS-CoV-2 EC50): 5.31 | Emax (SARS-CoV-2 [12]; [23]): 98% | pEC50 (SARS-CoV-2 [12]; [25]): 5.97 | Emax (HeLa-ACE2 cells [13]): 100% | pEC50 (HeLa-ACE2 cells [13]): < 5.02 | uninfected Calu-3 CC50 (Calu-3 cells [14]): > 27.747 ×÷ 1.135 (n=3) μM | Calu-3 uninfected cytotoxicity Sinf Average (Calu-3 cells [14]; 48 h): -92% | HepG2 72-hour cytotoxicity Sinf Average (HepG2 [15]; 72 h): -69% | HEK293T 72-hour cytotoxicty Sinf Average (HEK293T [16]; 72 h): -98% | pEC50 (HeLa-ACE2 cells [17]): < 5.02 | Emax (Calu-3 cells [3]): 99% | pEC50 (Calu-3 cells [3]): < 5.00 | CC50 at 48 h (in vitro; Calu-3 Uninf. cells CC50 (µM)): > 27.8 µM | CC50 at 48 h (in vitro; [19]): > 27.7 µM

C[C@H]1O[C@@H](O[C@H]2[C@@H](O)C[C@H](O[C@H]3[C@@H](O)C[C@H](O[C@H]4CC[C@@]5(C)[C@H](CC[C@@H]6[C@@H]5C[C@@H](O)[C@]5(C)[C@@H](C7=CC(=O)OC7)CC[C@]65O)C4)O[C@@H]3C)O[C@@H]2C)C[C@H](O)[C@@H]1O [Digoxin]
Emax (SARS-CoV-2 [1]; [20]): 100% | pEC50 (SARS-CoV-2 [1]; Severe acute respiratory syndrome coronavirus 2, HeLa-ACE2; read-out: HeLa-ACE2 CoV-2 EC50 GeoMean): 6.78 | CC50 at 24 h [10, 22]: 0.12 µM | HeLa-ACE2 uninfected cytotoxicity Sinf Average (HeLa-ACE2 cells [11]; [23]): -98% | Emax (SARS-CoV-2 [2]; [23]): 83% | pEC50 (SARS-CoV-2 [2]; Severe acute respiratory syndrome coronavirus 2, Calu-3, read-out: Calu-3 CoV-2 EC50 GeoMean): 6.77 | Emax (SARS-CoV-2 [12]; [23]): 89% | pEC50 (SARS-CoV-2 [12]; Severe acute respiratory syndrome coronavirus 2, HeLa-ACE2, detail column): 6.10 | pEC50 (HeLa-ACE2 cells [13]): < 5.02 | Calu-3 uninfected cytotoxicity Sinf Average (Calu-3 cells [14]): -38% | HepG2 72-hour cytotoxicity Sinf Average (HepG2 [15]): -102% | HEK293T 72-hour cytotoxicty Sinf Average (HEK293T [16]): -101% | Emax (HeLa-ACE2 cells [17]): 101% | pEC50 (HeLa-ACE2 cells [17]): 6.49 | Emax (Calu-3 cells [3]): -100% | pEC50 (Calu-3 cells [3]): < 5.00 | CC50 (in vitro; [19]): > 5.04 µM

CCC(CC)COC(=O)[C@H](C)NP(=O)(OC[C@H]1O[C@@](C#N)(c2ccc3c(N)ncnn23)[C@H](O)[C@@H]1O)Oc1ccccc1 (stereo partly drawn) [Remdesivir - control]
Emax (SARS-CoV-2 [1]; [20]): 100% | pEC50 (SARS-CoV-2 [1]; [21]): 6.91 | CC50 at 24 h [10, 22]: > 9.67 µM | HeLa-ACE2 uninfected cytotoxicity Sinf Average (HeLa-ACE2 cells [11]; [23]): -98% | Emax (SARS-CoV-2 [2]; [23]): 100% | pEC50 (SARS-CoV-2 [2]; [24]): 6.35 | Emax (SARS-CoV-2 [12]; [23]): 101% | pEC50 (SARS-CoV-2 [12]; [25]): 6.11 | Emax (HeLa-ACE2 cells [13]): 100% | pEC50 (HeLa-ACE2 cells [13]): < 5.62 | Emax (HeLa-ACE2 cells [17]): -42% | pEC50 (HeLa-ACE2 cells [17]): < 5.92 | Emax (Calu-3 cells [3]): 101% | pEC50 (Calu-3 cells [3]): 6.27 | CC50 (in vitro; [19]): > 30 µM | HepG2 72-hour cytotoxicity Sinf Average (HepG2 [5]): -100% | HEK293T 72-hour cytotoxicty Sinf Average (HEK293T [7]): -95% | Calu-3 uninfected cytotoxicity Sinf Average (Calu-3 cells [9]; [23]): -100%
